Test results from patent publication US20140314867A1, “VITAMIN K2 MICROSPHERES” (Medical and Pharmaceutical Industry Technology and …, priority 2013, published 2014).

Key:
Assay type in all cases: cell-based, human
[1] = system: MG-63 cells; test: Cell viability analysis (MTT), cell number of co-cultured MG-63 cells
Method: 0.0001 g, 0.0005 g, 0.005 g, and 0.05 g of VK2 was fine weighed and sterilized by UV light in a sterile hood overnight, then added into 50 ml centrifuge tubes. 50 ml of H-DMEM containing 10% FBS was then added to prepare cell culture medium with different VK2 concentrations: 0 mg/mL, 0.002 mg/mL, 0.01 mg/mL, 0.1 mg/mL, and 1 mg/mL. H-DMEM containing 10% FBS was used to adjust the concentration of MG-63 cell solution to 1×10^4 cells/ml. 1 ml/well of cell solution was seeded to a 24-well plate and incubated in an incubator for 1 day to make cells adhere. Then, the culture medium was removed, 1 ml/well of cell culture medium with different VK2 concentration were added respectively and incubated for 1, 3, and 7 days. Cell viability analysis (MTT) and alkaline phosphatase activity assay (ALP) were conducted. Cell morphology was observed by an inverted microscope and recorded in photographs. 0.01 g of 0%, 0.01%, 0.1%, and 1.0% VK2MS was fine weighed and sterilized by UV light in a sterile hood overnight, then added into 50 ml centrifuge tubes. 50 ml of H-DMEM containing 10% FBS was then added to prepare cell culture medium with different VK2 concentrations. H-DMEM containing 10% FBS was used to adjust the concentration of MG-63 cell solution to 1×10^4 cells/ml. 1 ml/well of cell solution was seeded to a 24-well plate and incubated in an incubator for 1 day to make the cells adhere. Then, the culture medium was removed, 1 ml/well of cell culture medium with different VK2 concentration were added respectively and incubated for 1, 3, and 7 days. In addition, the cell culture medium without microspheres (MS) was added 1 ml/well and incubated for 1, 3, and 7 days as control groups. Subsequently, cell viability analyse (MTT) and alkaline phosphatase activity assays (ALP) were conducted. Cell morphology was observed by an inverted microscope and recorded by photographs. First, MTT was prepared as a 5 mg/mL reaction solution by PBS, then filtered by a 0.22 μm filter. 10% MTT reagent was prepared by H-DMEM, and then stored in the dark. After being cultured for 1 day, the cell culture medium was removed from the 24-well cell culture plate. The 24-well cell culture plate was washed twice by PBS. After the PBS was removed, 1 ml/well of 10% MTT reagent was added to the culture plate and reacted in an incubator (37° C., 5% CO2) in the dark for 4-5 hours. Purple crystal particles were produced at the bottom of culture plate after the reaction. The reactive solution was removed and 350 μl/well of DMSO solution was added. After being mixed, […] of dissolved solution was suctioned to a 96-well plate and the absorbance at 570 nm was detected by an ELISA reader. The reference wavelength was set as 650 nm. A cell standard curve can be made to reckon the cell number. The cell solution was adjusted to have a concentration of 5000, 10000, 25000, 50000, 75000, and 100000 cells/ml by H-DMEM containing 10% FBS then seeded into a 24-well plate, respectively. After 1 day, after the cells were adhered, an MTT cell viability analysis was conducted. Absorbance and cell numbers were used to make a standard curve, such that the cell number could be reckoned from the absorbance. A growth curve of MG-63 cells was made first, and then the cell growth rate could be obtained by dividing the cell viability by that of the control group which was detected by the MTT assay. The result shown in FIG. 9A can be obtained by converting the data from ELISA to a cell number according to the cell growth curve. In FIG. 9A, it is observed that the cell number of MG-63 co-cultured with VK2 is apparently lower than that of the control group. Moreover, the effect of cell growth inhibition becomes obvious with the increasing concentration of VK2. […]

[2] = system: MG-63 cells; test: Alkaline phosphatase (ALP) activity test in co-cultured MG-63 cells
Method: 0.0001 g, 0.0005 g, 0.005 g, and 0.05 g of VK2 was fine weighed and sterilized by UV light in a sterile hood overnight, then added into 50 ml centrifuge tubes. 50 ml of H-DMEM containing 10% FBS was then added to prepare cell culture medium with different VK2 concentrations: 0 mg/mL, 0.002 mg/mL, 0.01 mg/mL, 0.1 mg/mL, and 1 mg/mL.
H-DMEM containing 10% FBS was used to adjust the concentration of MG-63 cell solution to 1×10^4 cells/ml. 1 ml/well of cell solution was seeded to a 24-well plate and incubated in an incubator for 1 day to make cells adhere. Then, the culture medium was removed, 1 ml/well of cell culture medium with different VK2 concentration were added respectively and incubated for 1, 3, and 7 days. Cell viability analysis (MTT) and alkaline phosphatase activity assay (ALP) were conducted. Cell morphology was observed by an inverted microscope and recorded in photographs. […]
The measurement of ALP is described below. After being cultured for 1 day, the cell culture medium was removed from the 24-well cell culture plate. Then, the 24-well cell culture plate was washed twice by PBS. After the PBS was removed, 200 μl/well of ALP extraction reagent pNPP65 (p-Nitrophenylphosphate) was added to the 24-well culture plate and reacted in an incubator (37° C., 5% CO2) in the dark for 30 minutes. Then, 50 μl of 1N sodium hydroxide was added to stop the reaction. 250 μl/well of supernatant was suctioned to a 96-well plate to detect the OD value at 405 nm by an ELISA reader. Activity of alkaline phosphatase (ALP) can be calculated by the formula below: […]
In this formula, A is the absorbance of a sample at 405 nm; Vt is the total reaction volume, 0.25 ml; Vs is the sample volume, 0.05 ml; t is the reaction time after adding pNPP65 (p-Nitrophenylphosphate), 30 minutes; c is mmol extinction coefficient of pNPP65 (p-Nitrophenylphosphate), 18.6 mM^−1 cm^−1; 1 is the optical path of the cuvette, 1 cm; 1000 is to convert the U/ml to U/l.

[3] = system: MG-63 cells; test: as above; conditions: 0.02 mg/mL

Substance: vitamin K2 [VK2]
- cell number ([1]; 0.002 mg/mL of VK2, day 1): 4.1±0.1 ×10^4 cells
- cell number ([1]; 0.002 mg/mL of VK2, day 3): 6.6±0.1 ×10^4 cells
- cell number ([1]; 0.002 mg/mL of VK2, day 7): 14.7±0.1 ×10^4 cells
- cell number ([1]; 1 mg/mL of VK2, day 1): 2.0±0.0 ×10^4 cells
- cell number ([1]; 1 mg/mL of VK2, day 3): 5.0±0.1 ×10^4 cells
- cell number ([1]; 1 mg/mL of VK2, day 7): 2.1±0.1 ×10^4 cells
- effect on cell proliferation ([1]; MG-63 co-cultured with VK2, 1, 3, 7 days): inhibits cell proliferation
- ALP value compared with control group ([2]; 0.002 mg/mL of VK2): higher than that of the control group
- ALP activity of a single cell ([2]; 0.002 mg/mL of VK2, day 1): 96.7±1.1 U/L-30 min-10^4 cells
- ALP value ([2]; 0.002 mg/mL of VK2, day 1): 399.9±3.3 U/L-30 min
- ALP activity of a single cell ([2]; 0.002 mg/mL of VK2, day 3): 62.4±0.9 U/L-30 min-10^4 cells
- ALP value ([2]; 0.002 mg/mL of VK2, day 3): 410.7±2.7 U/L-30 min
- ALP value ([2]; 0.002 mg/mL of VK2, day 7): 377.4±1.6 U/L-30 min
- ALP activity of a single cell ([2]; 0.01 mg/mL of VK2, day 1): 46.4±0.4 U/L-30 min-10^4 cells
- ALP value ([2]; 0.01 mg/mL of VK2, day 1): 111.0±0.7 U/L-30 min
- ALP activity of a single cell ([2]; 0.01 mg/mL of VK2, day 3): 19.8±0.1 U/L-30 min-10^4 cells
- ALP activity of a single cell ([2]; 0.01 mg/mL of VK2, day 7): 8.2±0.0 U/L-30 min-10^4 cells
- ALP value ([2]; 0.1 mg/mL of VK2, day 3): 112.2±0.3 U/L-30 min
- ALP value ([2]; 0.1 mg/mL of VK2, day 7): 100.6±0.0 U/L-30 min
- ALP activity of a single cell ([2]; 1.0 mg/mL of VK2, day 7): 70.4±1.7 U/L-30 min-10^4 cells
- effect on ALP activity of cells [3]: enhance the ALP activity of cells
